In patent US20250228864A1, “THERAPIES FOR THE TREATMENT OF INFLAMMATORY BOWEL DISEASE” (Gilead Sciences, Inc., priority 2023, published 2025):

How the values were obtained:
Assay type in all cases: in vivo
[1] = First-in-human Part B: plasma PK after once-daily dosing of Formula (III) for 14 days
Text: Part B (MAD Cohorts 6-10) consisted of up to 5 randomized, blinded (Sponsor-unblinded), placebo-controlled, MAD cohorts. Within each cohort 12 unique subjects were randomized 3:1 to receive blinded Formula (III) (N=9) or PTM Formula (III) (N=3). All subjects within each cohort received Formula (III) at the same dosing frequency.
Subjects enrolled in Part B received either blinded Formula (III) or PTM Formula (III) twice daily or once daily for 14 days. All subjects within each cohort received study drug at the same dosing frequency.
All study drugs in Part B (except Cohort 10 which will be administered under fasting conditions) were administered in the morning and evening following a standard meal (twice daily dosing), or only in the morning (daily dosing) following a standard meal except for Cohort 10.
Concentrations of Formula (III) and the metabolite, in plasma samples were determined using fully validated high-performance liquid chromatography-tandem mass spectrometry (LC-MS/MS) bioanalytical methods. All samples were analyzed in the timeframe supported by frozen stability storage data. The assays for Formula (III), and the metabolite were performed using methods validated by QPS, LLC (Newark, DE, USA).

[2] = tested on: IL-10−/− mouse colitis model; experiment: Example 3: Formula (III) and anti-p40 combination in IL-10−/− mouse colitis model; details: 21 days; Formula (III) 0.005% in chow, anti-p40 IP; vs no treatment control / either pathway alone
Description: The following experiments were run to evaluate the effects of a combination treatment of Formula (III) in combination with an anti-p40 antibody on the IL-10−/− mouse colitis model compared to the single treatment alone.
Female IL-10 deficient C57CL/6 mice (aged 12 weeks at study inception) were used in this study. All animal experiments were conducted according to Swiss animal well fare law and approved by the local animal welfare authority of Zurich County (Tierversuchskommission Zürich, Zurich, Switzerland, License No. ZH256-2014).
Mice were administered either standard chow diet (Harlan Teklad Global Diets 2014, TD2014) or standard chow diet plus 0.005% of Formula (III) in the chow. Formula (III)'s schedule was ad libitum while the anti-p40 antibody was administered via an intraperitoneal injection on day 1 and then every four days for three weeks.
The compound was added and mixed to the chow powder at 0.125% concentration, anti-p40 antibody was diluted in phosphate buffered saline (2 mg/mL) (anti-p40 antibody is a murine surrogate of ustekinumab) then dosed at either 2 mg/kg (low dose) or 4 mg/kg (high dose) every four days by intraperitoneal injection. […] The mice were then treated for three (3) weeks (21-days). On Day 21, mice were sacrificed, blood and tissue samples were collected for further analysis.
Experiments were conducted as describe in Experiment 2.

[3] = First-in-human Part A: plasma PK after single ascending doses of Formula (III)
Description: This was a 3-part study to evaluate pharmacokinetics, safety, tolerability, and pharmacodynamics of the Formula (III) compound in healthy volunteers. • To understand the single-dose PK, safety, tolerability, and PD of Formula (III) and its active metabolite, subjects in Part A received a single dose of Formula (III) in the fasting state in a dose-escalating manner. […]
Formula (III) is a prodrug of Formula (I). Plasma concentrations of Formula (III) metabolite was determined, and PK parameters estimated. Plasma concentrations of Formula (III) and/or its metabolites were determined, and PK explored, as appropriate.
Concentrations of Formula (III) and the metabolite, in plasma samples were determined using fully validated high-performance liquid chromatography-tandem mass spectrometry (LC-MS/MS) bioanalytical methods. All samples were analyzed in the timeframe supported by frozen stability storage data. […]

SMILES: CCOC(=O)[C@H](Cc1ccc(-n2c(=O)c3ccncc3n(C)c2=O)c2ncccc12)NC(=O)c1c(C)cc(N2CCOC[C@@H]2C(F)(F)F)cc1F (atropisomer, axis not shown) [Formula (III)]
- metabolite multiple-dose exposure, 200-mg tablet fasting versus 500-mg nonfasting capsule [1]: slightly lower
- body weight loss [2]: improved body weight loss
- plasma exposures of the prodrug Formula (III) compared with the active metabolite [3]: negligible
